Experimental data reported in patent US20110196000A1, “Use of succinate dehydrogenase (SDH) inhibitors in the treatment of plant species from the family of the true grasses” (Bayer CropScience AG, priority 2010, published 2011).

Key:
Assay type in all cases: in vivo
[1] = system: wheat variety Ritmo; assay: Plot trial in Germany: green leaf area by visual scoring; conditions: sprays at BBCH 39 and 59
Procedure: In Germany a plot trial was set up with the wheat variety Ritmo in order to investigate the effect of bixafen on the physiology, morphology and abiotic stress tolerance of wheat plants under realistic agricultural conditions. The products under test were applied to the plants, in the form of sequential spray sequences (BBCH 39 and 59). The spray volume was 400 l of water per hectare. In each trial component, 5 repetitions were carried out. [table] The duration of green coloration of the leaf area was captured by regular visual scoring of the fraction of green leaf area.

[2] = system: wheat variety Ritmo; assay: Plot trial: yield components; conditions: sprays at BBCH 39 and 59
[3] = system: infection-free wheat plants of the cultivar Passat; assay: Glasshouse trial: yield components; conditions: glasshouse, sprays at BBCH 39 and 59
[4] = system: wheat variety Ritmo; assay: Plot trial: chlorophyll content of leaves (pigment extraction method of Ziegler and Ehle)
[5] = system: infection-free wheat plants of the cultivar Passat; assay: Glasshouse trial: green leaf area by visual scoring; conditions: glasshouse
Procedure: (§1) In a glasshouse trial under controlled conditions, the effect of bixafen was investigated on the physiology, morphology and abiotic stress tolerance of infection-free wheat plants of the cultivar […] plants were grown in 10-litre containers over a period of 4 months. The substrate used was standard earth type ED 73 (Fröndenberg, Germany)+C-Horizont+Sand (4:2:1). The supply of nutrient to the plants took place by feeding with a 0.2% strength Flory 2 liquid fertilizer solution (from Euflor, Munich) once every two weeks. The plants were supplied with water as required. In each component of the trial, 10 repetitions were carried out. To prevent infestation with powdery mildew, Proquinazid (Talius® was applied once. The incidence of aphids and spider mites was avoided by treatments with Karate®, Bulldock® and Sumicidin®. The products under test were applied to the plants, in the form of sequential spray sequences (BBCH 39 and 59). The spray volume was 300 l of water per hectare. [table] The duration of the green coloration of the leaf area was captured on the basis of regular visual scoring of the fraction of the green leaf area.

[6] = system: infection-free wheat plants of the cultivar Passat; assay: Glasshouse trial: size of the flag leaf; conditions: at BBCH 83-85
Procedure: as §1, with “Morphological parameters measured, additionally, were the length and width, i.e. the size” for “The duration”, “flag leaf. This was greatest with” for “green coloration of”, “succinate dehydrogenase (SDH) inhibitor bixafen, in comparison to” for “leaf area was captured on”, “other comparison fungicides.” for “basis of regular visual scoring of the fraction of the green leaf area.”

[7] = system: infection-free wheat plants of the cultivar Passat; assay: Glasshouse trial: temperature of ears and leaves as measure of transpiration activity
Procedure: (§2) In a glasshouse trial under controlled conditions, the effect of bixafen was investigated on the physiology, morphology and abiotic stress tolerance of infection-free wheat plants of the cultivar […] plants were grown in 10-litre containers over a period of 4 months. The substrate used was standard earth type ED 73 (Fröndenberg, Germany)+C-Horizont+Sand (4:2:1). The supply of nutrient to the plants took place by feeding with a 0.2% strength Flory 2 liquid fertilizer solution (from Euflor, Munich) once every two weeks. The plants were supplied with water as required. In each component of the trial, 10 repetitions were carried out.

[8] = system: infection-free wheat plants of the cultivar Passat; assay: Glasshouse trial: time of heading (ear emergence); parameters: time of heading of wheat (ears emerged): unit not given here
Procedure: as §2

[9] = system: infection-free wheat plants of the cultivar Passat; assay: Glasshouse trial: gas exchange activity of wheat ears; conditions: development stage BBCH 75
Procedure: as §2

[10] = 7 days after second fungicide application
[11] = 14 days after second fungicide application
[12] = 21 days after second fungicide application
[13] = 28 days after second fungicide application
[14] = 35 days after second fungicide application
[15] = 42 days after second fungicide application
[16] = 68 days after second fungicide application (so in the source)
[17] = 75 days after second fungicide application (so in the source)
[18] = 82 days after second fungicide application (so in the source)
[19] = 89 days after second fungicide application (so in the source)
[20] = 96 days after second fungicide application (so in the source)
[21] = 103 days after second fungicide application (so in the source)
[22] = 110 days after second fungicide application (so in the source)
[23] = 117 days after second fungicide application (so in the source)

In the case of `CCCN(CC)CC1COC2(CCC(C(C)(C)C)CC2)O1` (centres unmarked) [Spiroxamine], the “green leaf area of the flag leaf” value [1, 10] is reported as 98.3 % leaf area, the “green leaf area of the second-from-top leaf (F-1)” value (“green leaf area … (F-1)” below) [1, 10] is reported as 97.4 % leaf area and the “green leaf area of the third-from-top leaf (F-2)” value (shortened to “green leaf area … (F-2)”) [1, 10] is reported as 94.1 % leaf area. For the same compound, the “green leaf area of the flag leaf” value [1, 11] was 97.9 % leaf area, the “green leaf area … (F-1)” value [1, 11] was 95.8 % leaf area and the “green leaf area … (F-2)” value [1, 11] was 93.3 % leaf area. The “green leaf area of the flag leaf” value [1, 12] was 92.7 % leaf area, the “green leaf area … (F-1)” value [1, 12] was 85.8 % leaf area and the “green leaf area … (F-2)” value [1, 12] was 78.1 % leaf area. The “green leaf area of the flag leaf” value [1, 13] was 82.3 % leaf area, the “green leaf area … (F-1)” value [1, 13] was 69.7 % leaf area and the “green leaf area … (F-2)” value [1, 13] was 51.7 % leaf area. The “green leaf area of the flag leaf” value [1, 14] was 48.6 % leaf area, the “green leaf area … (F-1)” value [1, 14] was 31.7 % leaf area and the “green leaf area … (F-2)” value [1, 14] was 15.7 % leaf area. For the same compound, the “green leaf area of the flag leaf” value [1, 15] was 5.5 % leaf area, the “green leaf area … (F-1)” value [1, 15] was 0 % leaf area and the “green leaf area … (F-2)” value [1, 15] was 0 % leaf area. For the same compound, the “green leaf area … (F-1)” value ([1]; 49 days after second fungicide application) was 0 % leaf area, the “Ears/m^2” value [2] was 409 and the “Harvest Index” value [2] was 59.3. For the same compound, the Straw [2] was 514 g m^−2, the “TKM (thousand-kernel mass)” value [2] was 44.2 g and the Yield [2] was 7.7 t ha^−1. For the same compound, the Ears/pot [3] was 40.9, the “Harvest Index” value [3] was 36.3% and the Kernels/ear [3] was 23.2. For the same compound, the Straw [3] was 58.6 g/pot, the “TKM (thousand-kernel mass)” value [3] was 35.5 g and the Yield [3] was 33.4 g/pot. For the same compound, the Chlorophyll content ([4]; BBCH 75 (mature milk), leaf F) was 1471 µg/g, the Chlorophyll content ([4]; BBCH 75 (mature milk), leaf F-1) was 1245 µg/g and the Chlorophyll content ([4]; BBCH 75 (mature milk), leaf F-2) was 707 µg/g. For the same compound, the Chlorophyll content ([4]; BBCH 85 (mature dough), leaf F) was 114 µg/g, the Chlorophyll content ([4]; BBCH 85 (mature dough), leaf F-1) was 119 µg/g and the Chlorophyll content ([4]; BBCH 85 (mature dough), leaf F-2) was 147 µg/g. For the same compound, the “green leaf area of the flag leaf (F)” value [5, 16] was 100 % leaf area, the “green leaf area … (F-1)” value [5, 16] was 100 % leaf area and the “green leaf area … (F-2)” value [5, 16] was 100 % leaf area. The “green leaf area of the flag leaf (F)” value [5, 17] was 100 % leaf area, the “green leaf area … (F-1)” value [5, 17] was 100 % leaf area and the “green leaf area … (F-2)” value [5, 17] was 95 % leaf area. For the same compound, the “green leaf area of the flag leaf (F)” value [5, 18] was 100 % leaf area, the “green leaf area … (F-1)” value [5, 18] was 90 % leaf area and the “green leaf area … (F-2)” value [5, 18] was 73 % leaf area. For the same compound, the “green leaf area of the flag leaf (F)” value [5, 19] was 92 % leaf area, the “green leaf area … (F-1)” value [5, 19] was 77 % leaf area and the “green leaf area … (F-2)” value [5, 19] was 45 % leaf area. The “green leaf area of the flag leaf (F)” value [5, 20] was 80 % leaf area, the “green leaf area … (F-1)” value [5, 20] was 50 % leaf area and the “green leaf area … (F-2)” value [5, 20] was 19 % leaf area. The “green leaf area of the flag leaf (F)” value [5, 21] was 55 % leaf area, the “green leaf area … (F-1)” value [5, 21] was 23 % leaf area and the “green leaf area … (F-2)” value [5, 21] was 7 % leaf area. For the same compound, the “green leaf area of the flag leaf (F)” value [5, 22] was 23 % leaf area, the “green leaf area … (F-1)” value [5, 22] was 6 % leaf area and the “green leaf area … (F-2)” value [5, 22] was 0 % leaf area. The “green leaf area of the flag leaf (F)” value [5, 23] was 3 % leaf area, the “green leaf area … (F-1)” value [5, 23] was 0 % leaf area and the “green leaf area … (F-2)” value [5, 23] was 0 % leaf area. The “Length of the flag leaf” value [6] was 26.1 cm, the “Width of the flag leaf” value [6] was 1.2 cm and the “Area of the flag leaf” value ([6]; calculated using the formula A = 0.67 × length × width) was 20.98 cm^2. The “Area [rel.] of the flag leaf” value ([6]; untreated = 100) was 96 rel, the “Temperature (as a measure of the transpiration activity)” value (“Temperature” for short) ([7]; BBCH 75, ear) was 23.2 °C and the “Temperature” value ([7]; BBCH 75, leaf) was 22.4 °C. The “Temperature” value ([7]; BBCH 80, ear) was 20.2 °C, the “Temperature” value ([7]; BBCH 80, leaf) was 16.4 °C and the “Temperature” value ([7]; BBCH 85, ear) was 25.1 °C. The “Temperature” value ([7]; BBCH 85, leaf) was 23.7 °C, the “Temperature” value ([7]; BBCH 90, ear) was 24.2 °C and the “Temperature” value ([7]; BBCH 90, lear (so in the source)) was 23.2 °C. The “time of heading of wheat (ears emerged)” value ([8]; 45 days after sowing) was 10.8, the “time of heading of wheat (ears emerged)” value ([8]; 50 days after sowing) was 34.1 and the “time of heading of wheat (ears emerged)” value ([8]; 55 days after sowing) was 46.4. The “time of heading of wheat (ears emerged)” value ([8]; 60 days after sowing) was 57.5, the “time of heading of wheat (ears emerged)” value ([8]; 65 days after sowing) was 75.5 and the “time of heading of wheat (ears emerged)” value ([8]; 70 days after sowing) was 83.4. For the same compound, the “time of heading of wheat (ears emerged)” value ([8]; 75 days after sowing) was 91.1, the “time of heading of wheat (ears emerged)” value ([8]; 80 days after sowing) was 99.1 and the “time of heading of wheat (ears emerged)” value ([8]; 85 days after sowing) was 100. For the same compound, the “Photosynthesis (gas exchange activity of wheat ears)” value [9] was −2.36 a CO2 per ear and the “Respiration (gas exchange activity of wheat ears)” value [9] was 2.82 b CO2 per ear.
